Experimental data: patent US6358999B2, “Use of zinc tranexamate in the treatment of diabetes” (Hamari Chemicals, LTD, priority 2000, dated 2002)

Tests used:
[1] = test system: intestinal α-glucosidase; test: Inhibition of intestinal α-glucosidase activity of normal mouse (intestinal homogenate, glucose production); format: biochemical; conditions: for Glucose (glucose production from isomaltose): substrate isomaltose; for Glucose (glucose production from isomaltose) / Glucose (glucose production from maltose) / Glucose (glucose production from sucrose): 37° C., 30 minutes; for Glucose (glucose production from maltose): substrate maltose
Procedure: (§1) Intestinal tract enucleated from a normal mouse was homogenized by the conventional method after removing membrane mucosa. As a substrate, sucrose, starch, maltose or isomaltose was used. The homogenate was incubated with the substrate in the presence of a test compound (Y-4 or zinc chloride) at 37° C. for 30 minutes. The reaction mixture was centrifuged and the glucose concentration in the resulting supernatant was assayed. The glucose assay was conducted calorimetrically by adding a chromogenic reagent (0.47 mol/l of orthotoluidine, 16 mol/l of acetic acid, 10 mmol/l of boric acid) to the supernatant, heating the mixture in a boiling water bath for 8 minutes and measuring the absorbance at 635 nm. α-Glucosidase activity expressed in terms of glucose concentration/mg protein was calculated.

[2] = test system: intestinal α-glucosidase; test: Inhibition of intestinal α-glucosidase activity of streptozocin-induced diabetic mouse; format: biochemical; conditions: for Glucose (glucose production from maltose) / Glucose (glucose production from sucrose): diabetic mouse; for Glucose (glucose production from maltose): substrate maltose; for Glucose (glucose production from sucrose): substrate sucrose
Procedure: as §1
Example 5 was repeated using intestinal tract enucleated from a diabetic mouse induced by the treatment with streptozocin instead of intestinal tract enucleated from a normal mouse to determine the inhibitory effect of Y-4 on α-glycosidase activity. The intestinal α-glucosidase activity was higher in streptozocin-induced diabetic mouse than in normal mouse. […] The inhibitory effect of Y-4 was more remarkable in the diabetic mouse than in normal mouse.

## [Cl-].[Cl-].[Zn+2] [ZnCl2, zinc chloride]
[1]; starch, maltose, isomaltose
  Inhibition of the enzymatic reaction with other substrates: not effective
[1]; inhibitor 5 mM
  Glucose (glucose production from isomaltose): 6.207 ± 0.230 mg/mg protein
  Glucose (glucose production from maltose): 19.917 ± 0.932 mg/mg protein
[1]; inhibitor 10 mM
  Glucose (glucose production from isomaltose): 5.868 ± 0.496 mg/mg protein
  Glucose (glucose production from maltose): 18.114 ± 0.145 mg/mg protein
[1]; inhibitor 30 mM
  Glucose (glucose production from isomaltose): 6.510 ± 0.169 mg/mg protein
  Glucose (glucose production from maltose): 15.657 ± 0.036 mg/mg protein
[1]; inhibitor 50 mM
  Glucose (glucose production from isomaltose): 5.421 ± 0.339 mg/mg protein
  Glucose (glucose production from maltose): 10.442 ± 0.290 mg/mg protein
[1]; substrate sucrose
  Inhibition of the enzymatic reaction with sucrose: as effective as Y-4
[1]; substrate sucrose, inhibitor 5 mM
  Glucose (glucose production from sucrose): 3.509 ± 0.254 mg/mg protein
[1]; substrate sucrose, inhibitor 10 mM
  Glucose (glucose production from sucrose): 1.658 ± 0.078 mg/mg protein
[1]; substrate sucrose, inhibitor 30 mM
  Glucose (glucose production from sucrose): 0.714 ± 0.097 mg/mg protein
[1]; substrate sucrose, inhibitor 50 mM
  Glucose (glucose production from sucrose): 0.133 ± 0.024 mg/mg protein
[2]; inhibitor 5 mM
  Glucose (glucose production from maltose): 28.691 ± 1.222 mg/mg protein
  Glucose (glucose production from sucrose): 13.346 ± 0.411 mg/mg protein
[2]; inhibitor 10 mM
  Glucose (glucose production from maltose): 20.698 ± 0.442 mg/mg protein
  Glucose (glucose production from sucrose): 6.716 ± 0.145 mg/mg protein
[2]; inhibitor 30 mM
  Glucose (glucose production from maltose): 21.175 ± 0.105 mg/mg protein
  Glucose (glucose production from sucrose): 5.772 ± 0.121 mg/mg protein
[2]; inhibitor 50 mM
  Glucose (glucose production from maltose): 21.838 ± 0.652 mg/mg protein
  Glucose (glucose production from sucrose): 4.973 ± 0.024 mg/mg protein
[2]; streptozocin-induced diabetic mouse
  Inhibition of intestinal α-glucosidase, all substrates: only weak inhibitory effects
